From a melting point compilation (Tetko et al.; mined from patent text by program, amines drawn as free bases though some values may be those of a salt) come the findings set out here.

The structures appear in SMILES notation. Bounds are passed on as bounds.

Turning to `COc1ccc(CCSc2c(O)cc(-c3ccccc3)oc2=O)cc1`, the melting point fell in the range of 144 to 145 °C. Turning to `CCN(C#N)C(=O)C(C)Oc1ccc(Oc2cnc3cc(F)ccc3n2)cc1` (centres undefined), the melting point was 108 to 111 °C. `COC(=S)c1cc(C)cc(C)c1` registered a melting point of 46 °C.

With `CC(C)(Oc1ccc(CNc2ccc(Cl)cc2)cc1)C(=O)O`, the melting point is 155 to 158 °C. In turn, `CCOC(=O)Cc1csc(-c2ncccc2O)n1` came in with a melting point of 85.5 to 86.5 °C. For the compound `O=C(O)c1cc2cc(C(=O)c3cccs3)c(Cl)c(Cl)c2o1`, the melting point fell in the range of 243 to 245 °C. `C#Cc1cc(F)c(-n2c(=O)c(C)c(C(F)(F)F)n(C)c2=O)cc1NS(C)(=O)=O` returned a melting point of 207 to 208 °C. As to `CCCCN1CCC(c2c[nH]c3ccc(NS(C)(=O)=O)cc23)CC1`, the melting point turned out to be 78 °C. Consider `COC(=O)c1ccc2oc(CCCCCc3cc4cc(C(=O)OC)ccc4o3)cc2c1`, for which the melting point was 83 to 85 °C. `COC(=O)c1cc2cc(-c3ccc4ccc(Cl)cc4n3)ccc2o1` yielded a melting point of 178 to 181 °C. Next, `CNCc1ccc(CSCCNC2=NS(=O)(=O)N=C2NC)o1`: 50 to 56 °C; `O=C1CCCCc2cc(OCC3CCCCC3)ccc21`: 86 to 88 °C; `CC1(C)CC(=O)c2c(Sc3ccccc3)sc(-c3cc[nH]n3)c2C1`: 231 to 234 °C.

For `COc1ccccc1C(=O)C=Cc1ccncc1`, the melting point was 70 °C.

Consider `CN(Cc1cccc2c1C(=O)N(C1CCC(=O)NC1=O)C2=O)C(=O)OC(C)(C)C` (centres undefined), for which the melting point lay in the range of 138 to 140 °C. `CC(C)CC(=O)Nc1cccc(-c2ccnc3c(-c4cccc(C=O)c4)cnn23)c1` displayed a melting point of 163 to 165 °C. Compound `Cc1cc(C(=O)O)c(S(N)(=O)=O)s1` gave a melting point of 198 °C. `CCCCCCC1=C(Br)C(CBr)(NCc2ccccc2)OC1=O` (centres undefined) came in with a melting point of 72 to 75 °C. As to `Cc1nc(CCn2cnc3c2c(=O)n(C)c(=O)n3C)no1`, the melting point lay in the range of 112 to 114 °C. Consider `Cn1ccnc1Sc1ccc(Nc2c(C#N)cnc3cc(/C=C/CN4CCCC4)ccc23)cc1Cl`, for which the melting point lay within 182 to 190 °C. For `CC(C)NC(=S)N1CCc2nc(N)sc2C1`, the melting point lay within 179 to 180 °C. `CC(C)(C)OC(=O)NC(C(=O)OCC(=O)c1ccccc1)c1ccc(OCC(=O)c2ccccc2)cc1` (centres undefined) yielded a melting point of 125 to 126 °C.

`CC1CCN(c2nn3ccnc3c3c2CCCC3)CC1`: the melting point lay in the range of 95 to 95.5 °C.

`CCn1c2ccccc2c2oc(C(=O)Cl)cc21`: the melting point was in the range of 127 to 129 °C. Turning to `CN1CCC(c2ccccc2)(C(C)(C)O)CC1`, the melting point is 146 to 147 °C. With `OCc1cnoc1-c1ccc(F)cc1`, the melting point was 41 to 42 °C. As for `Clc1ccccc1-c1c(I)nc2ncnn2c1NC1CCCC1`, the figure is 150 °C. On to `N#CC(C=O)c1cnccn1` (centres undefined), for which the melting point fell in the range of 192 to 194 °C. As to `CC(C)(C)N(NC(=O)c1ccccc1)C(=O)Cc1ccccc1`, the melting point fell in the range of 167 to 169 °C. `CCOC(=O)c1sc2[nH]c(C(=O)c3ccccc3)cc2c1C` had a melting point of 180 to 181 °C.

In turn, `COc1ccccc1CCN1CC(=O)N(c2cnn(Cc3c(C)noc3C)c2)C1=O` showed a melting point of 97 to 98 °C. On to `CCCCCC(=O)N1CCc2nc3ccccc3c(C)c2CC1`, for which the melting point worked out at 109 °C. `CCC(=O)Nc1cccc(O)c1` showed a melting point of 181 to 182 °C.

`Clc1ccc(Cc2nc(-c3ccccc3)nnc2NCCN2CCCCC2)cc1` had a melting point of 192 °C. Next, `COc1ccc(Cc2cnc(-c3ccccc3)c(-c3ccccc3)n2)cc1`: 102 to 103 °C; `O=C(Nc1ccc(-c2nnn[nH]2)cc1)Oc1ccc([N+](=O)[O-])cc1`: above 260 °C. As for `COC(=O)C(Br)(C1=NCCCS1)[N+](=O)[O-]` (centres undefined), the melting point was in the range of 88.5 to 93 °C. In turn, `C=CCn1c(=O)c(C(=O)OCC)c(N2CCCC2)c2ccc(C)nc21` registered a melting point of 97 to 103 °C. Compound `COC(=O)c1cc(OCC=C(Cl)Cl)cc(Cl)c1OCC=C(Cl)Cl` came in with a melting point of 63 °C. For `O=[N+]([O-])c1cc(O)c(OCCOCCO)cc1[N+](=O)[O-]`, the melting point was 135 °C. `CCOCCOc1cccc(-c2ccc3c(c2)C=C(C(=O)Nc2ccc(CN(C)C4CCOCC4)cc2)CCS3(=O)=O)c1` returned a melting point of 180 to 182 °C. Turning to `OC(CNCc1ccccc1)C(c1ccccc1)c1ccccc1` (centres undefined), the melting point lay within 123 to 124 °C. `CCCCOc1c(CN2C(=O)c3ccccc3C2=O)n(CC(C)(C)C)c(=O)c2ccc(F)cc12` gave a melting point of 162 to 164 °C. As for `COC(=O)c1cc(OCc2ccc3ccccc3n2)n(C(C)C)n1`, the figure is 106 to 107 °C.

For the compound `COc1ccncc1-c1cccc(OC2SCC(O)C(O)C2O)c1` (centres undefined), the melting point is 195 °C. As for `O=CNCc1ccc2[nH]cc(CCCN3C(=O)c4ccccc4C3=O)c2c1`, the figure is 150 to 152 °C; as for `CCN(CC)C(=O)COc1cc(N)c(Cl)cc1C(=O)O`, 186 to 188 °C; as for `Cc1c(SCc2ccco2)ccnc1CO`, 60 to 62 °C. The compound `O=C1N(c2ccccc2)c2ccccc2C1(Cc1ccncc1)Cc1ccc([N+](=O)[O-])cc1` (centres undefined) came in with a melting point of 168 to 169 °C. For the compound `CCOc1cccc(-c2cc(F)c(NC(=O)c3ccccc3CO)c(Cl)c2)c1`, the melting point was in the range of 139 to 142 °C. For the compound `CCOCc1nc2c(N)nc3ccccc3c2n1CCCC(N)=O`, the melting point was 233 to 235 °C. `O=C(Cc1noc2ccccc12)NS(=O)(=O)C1CC1` yielded a melting point of 147 to 148 °C.

As for `CC(C)(C)c1cc(C(=O)N2CCN(c3ccc([N+](=O)[O-])cc3)CC2)cc(C(C)(C)C)c1O`, the melting point is 160 °C. Regarding `CCCC(O)(CCC)c1ccc(C2=CC=CC(OCc3ccc(CO)c(CO)c3)C2(C)C)cc1` (centres undefined), the melting point was in the range of 118 to 120 °C.

As for `NC(=O)c1ccccc1C(=O)N(C[C@H]1CN(c2ccc(N3CCOCC3=O)cc2)C(=O)O1)C[C@H]1CN(c2ccc(N3CCOCC3=O)cc2)C(=O)O1`, the melting point worked out at 204 °C.

As to `CCOC(=O)Cc1ccc(NC(=O)C(COc2cccnc2)NS(=O)(=O)c2ccc(Cl)cc2)cc1` (racemic), the melting point was 136 to 139 °C.

In the case of `Cn1c(=O)c(-c2c(Cl)cccc2Cl)cc2cnc(N)cc21`, the melting point was 239 to 240 °C. For the compound `O=Cc1ccc(OCCCc2ccccc2)c([N+](=O)[O-])c1`, the melting point came to 82.5 °C. In turn, `CCC1(CC(=O)O)OCCc2nc(-c3ccc(Cl)cc3)sc21` (centres undefined) showed a melting point of 190 to 191 °C.

In the case of `COC(=O)c1ccc2c(c1)C(=O)c1ccccc1CO2`, the melting point was in the range of 128 to 129 °C. Consider `O=C1c2cc(O)ccc2SCC1Cc1ccccc1` (centres undefined), for which the melting point fell in the range of 73 to 77 °C. As to `Cn1cc(C2=C(c3c4n(c5ccccc35)CC3CN(C(=O)OC(C)(C)C)CC3C4)C(=O)OC2=O)c2ccccc21` (centres undefined), the melting point fell in the range of 265 to 266 °C. In turn, `CCOC(=O)c1cc2c3n(ccc-2n1)CC(c1cccc(OC)c1)=N3` registered a melting point of 198 to 200 °C. In turn, `COc1cc(-c2ccccc2Cl)c(Cl)cc1C(=O)N1Cc2ccc(C(=O)N(C)Cc3cccnc3)n2Cc2ccccc21` gave a melting point of 196 to 198 °C.

A word on the melting point: it is the temperature, or range, at which the solid turns liquid.
